Measurements taken from US20060115816A1, “Splice variant cannabinoid receptor (cb1b)” (priority 2002, published 2006).
Where two headings read alike, the source gives them in different places.

Columns and labels:
[1] = molecular target: T1, hCB1 (Homo sapiens, UniProt P21554); assay: biochemical; format: biochemical
T1 construct: expressed in transfected cells

[2] = molecular target: T2, hCB1a (Homo sapiens, UniProt P21554); assay: biochemical; format: biochemical
T2 construct: expressed in transfected cells

[3] = molecular target: T3, hCB1b (Homo sapiens, UniProt P21554); assay: biochemical; format: biochemical
T3 construct: expressed in transfected cells

[4] = molecular target: T4, hCB2 (Homo sapiens, UniProt P34972); assay: GTPγ[35S] binding assay, agonist properties on hCB2; format: biochemical
T4 construct: expressed in transfected cells

[5] = molecular target: T3, hCB1b; assay: FLIPR intracellular calcium mobilization assay (Fluo-3), HEK-293S cells expressing human CB1b receptor and Gα16; format: cell-based
Description: In order to assess the functionality of the human CB1b receptor variant, a functional assay was performed with FLIPR (Fluorescent Imaging Plate Reader, Molecular Devices) using the fluorescent calcium indicator Fluo-3 (Molecular Probes) on a 96 well platform. […] On the day of the experiment, the cells were initially washed once with Hank's buffer (pH7.4) containing 20 mM Hepes and 0.1% BSA (HBSS buffer) and subsequently loaded with fluorescent solution (HBSS buffer, 4 μM Fluor-3 and 0.04% pluronic acid). The cells were incubated at 37° C. for 1 hour in a humidified chamber. Following the incubation step, cells were washed five times with HBSS buffer. […] A range of other natural and synthetic cannabinoid ligands were also tested.

[6] = molecular target: T5, un-spliced human CB 1 receptor (Homo sapiens, UniProt P21554); assay: FLIPR intracellular calcium mobilization assay (Fluo-3), HEK-293S cells expressing un-spliced hCB1 receptor and Gα16; format: cell-based
T5 construct: expressed in transfected cells

[7] = agonist, GTPγ[35S] binding assay, read-out: EC50 hCB1
[8] = agonist, GTPγ[35S] binding assay, read-out: EC50 hCB1a
[9] = agonist, GTPγ[35S] binding assay, read-out: EC50 hCB1b

T4 sequence (P34972 whole entry): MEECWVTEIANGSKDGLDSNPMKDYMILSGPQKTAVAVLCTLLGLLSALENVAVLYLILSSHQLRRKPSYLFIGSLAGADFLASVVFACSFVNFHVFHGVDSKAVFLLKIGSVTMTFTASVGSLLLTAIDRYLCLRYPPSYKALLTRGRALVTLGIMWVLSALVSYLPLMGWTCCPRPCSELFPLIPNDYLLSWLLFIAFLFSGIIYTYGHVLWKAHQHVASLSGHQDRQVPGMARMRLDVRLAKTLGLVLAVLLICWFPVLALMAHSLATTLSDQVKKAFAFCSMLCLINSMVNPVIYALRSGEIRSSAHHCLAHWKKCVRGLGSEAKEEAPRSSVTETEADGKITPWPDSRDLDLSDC
T2 sequence (P21554 1-411 isoform P21554-2): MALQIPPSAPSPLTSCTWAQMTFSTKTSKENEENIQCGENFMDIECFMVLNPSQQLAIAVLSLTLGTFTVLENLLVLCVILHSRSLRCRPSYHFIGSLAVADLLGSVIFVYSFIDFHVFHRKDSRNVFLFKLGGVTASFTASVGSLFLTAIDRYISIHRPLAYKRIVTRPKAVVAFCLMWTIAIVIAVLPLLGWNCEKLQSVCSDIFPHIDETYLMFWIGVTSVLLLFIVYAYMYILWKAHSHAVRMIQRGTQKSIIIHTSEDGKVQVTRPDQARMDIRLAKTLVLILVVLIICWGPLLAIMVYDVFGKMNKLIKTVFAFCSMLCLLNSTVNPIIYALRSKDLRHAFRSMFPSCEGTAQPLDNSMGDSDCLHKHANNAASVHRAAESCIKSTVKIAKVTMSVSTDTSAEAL
T1 sequence (P21554 whole entry): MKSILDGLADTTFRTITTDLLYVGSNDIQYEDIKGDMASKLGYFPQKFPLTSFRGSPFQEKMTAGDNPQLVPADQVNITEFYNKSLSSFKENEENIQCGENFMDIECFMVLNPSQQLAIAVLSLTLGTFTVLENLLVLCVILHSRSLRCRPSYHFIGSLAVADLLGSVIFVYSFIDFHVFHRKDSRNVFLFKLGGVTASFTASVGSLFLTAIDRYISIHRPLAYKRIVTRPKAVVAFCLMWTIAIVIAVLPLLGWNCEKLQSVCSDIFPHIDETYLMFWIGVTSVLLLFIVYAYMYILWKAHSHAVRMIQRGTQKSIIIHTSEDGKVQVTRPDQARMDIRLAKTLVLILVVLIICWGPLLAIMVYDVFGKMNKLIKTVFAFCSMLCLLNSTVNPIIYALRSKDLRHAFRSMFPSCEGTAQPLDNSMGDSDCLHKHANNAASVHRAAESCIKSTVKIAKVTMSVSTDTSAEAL
T3 sequence (P21554 1-439 isoform P21554-3): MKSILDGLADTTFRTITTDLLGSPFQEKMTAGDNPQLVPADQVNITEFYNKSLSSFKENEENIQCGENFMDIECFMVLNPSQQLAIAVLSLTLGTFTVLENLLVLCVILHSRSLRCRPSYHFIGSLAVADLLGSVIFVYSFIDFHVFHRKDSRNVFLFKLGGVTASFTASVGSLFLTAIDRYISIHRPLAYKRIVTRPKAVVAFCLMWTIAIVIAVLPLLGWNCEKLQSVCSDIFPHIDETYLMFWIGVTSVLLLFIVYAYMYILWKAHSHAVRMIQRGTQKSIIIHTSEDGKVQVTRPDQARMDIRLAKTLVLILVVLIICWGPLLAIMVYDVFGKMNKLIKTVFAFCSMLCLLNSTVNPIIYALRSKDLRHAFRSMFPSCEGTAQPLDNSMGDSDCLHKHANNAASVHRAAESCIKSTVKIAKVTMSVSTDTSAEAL
T5 sequence (P21554 whole entry, canonical isoform): as the sequence (P21554 whole entry) above

Compound	EC50 [1, 7] [nM]	EC50 [2, 8] [nM]	EC50 [3, 9] [nM]	EC50 [4] [nM]	further results
CCCCC/C=C\C/C=C\C/C=C\C/C=C\CCCC(=O)OCCN [Virodhamine]	934	> 1000	> 1000	1310	
CCCC(C)(C)c1ccc2c(c1)OC(C)(C)[C@@H]1CC=C(C)C[C@@H]21 [JWH133]	> 1000	> 1000	> 1000	1.8	
CCCCCCCCCCCCCCCC(=O)NCCO [Palmitoylethanolamine]	> 1000	> 1000	> 1000	349	
CCCCCCC(C)(C)c1cc(O)c2c(c1)OC(C)(C)[C@@H]1CC=C(CO)C[C@@H]21 [Hu210]					EC50 [1]: 0.06 nM; EC50 [2]: 0.2 nM; EC50 [3]: 0.15 nM; EC50 [5]: 0.15 nM; EC50 [6]: 0.06 nM
CCCCC/C=C\C/C=C\C/C=C\C/C=C\CCCC(=O)OC(CO)CO [2-arachodonylglycerol]				1690	
CCCCC/C=C\C/C=C\C/C=C\C/C=C\CCCCOC(CO)CO [Noladin Ether]				> 1000	EC50 ([1]; read-out: EC50 hCB1): 5.1 nM; EC50 ([2]; read-out: EC50 hCB1a): > 1000 nM; EC50 ([3]; read-out: EC50 hCB1b): > 1000 nM
